The record followed here is US8232315B2, “Methods for treating drug addiction and improving addiction-related behavior” (SK Biopharmaceuticals Co., Ltd., priority 2009, dated 2012).

Entries after “also recorded” stand apart in the source; their conditions may differ. A value given as a limit tells only on which side of the number the result lay.

For the assay, the system named is rhesus monkeys trained to self-administer cocaine. Kind of assay: Cocaine self-administration, Rapid Assessment (Rapid Dose Effect) Procedure, cocaine dose-effect curve. It is filed as in vivo, rhesus monkeys (Macaca mulatta). The method, then: The test compound (O-carbamoyl-(D)-phenylalaminol) was tested for the effects on cocaine self-administration in rhesus monkeys. Rhesus monkeys were trained to self-administer cocaine (0.032 mg/kg/inj, i.v.) and 1 g banana-flavored food pellets during 2-hr experimental sessions in the Rapid Assessment Procedure. Each session consisted of four 20-min components of drug availability (100-min), each separated by a 5-min timeout period. The four components of drug availability were preceded and followed by […] components of food availability. During training, unit doses of cocaine were varied across components of the session (0.001-0.03 or 0.01-0.32 mg/kg/inj) to provide full dose effect curves for cocaine self-administration. The position and slope of the dose-effect curve varied among monkeys and, generally, was represented by an inverted-U shape function characteristic for cocaine self-administration under fixed-ratio schedules. In some sessions, the unit dose of cocaine at the peak of the dose-effect curve for i.v. self-administration (0.0032 or 0.032 mg/kg/inj) was kept constant across components of the session. After baseline cocaine dose-effect curves and the effects of peak dose availability throughout the session were stable, experiments with test compound were begun.
Next, the Rapid Assessment Procedure was used to evaluate the effects of a single i.m. dose of test compound on self-administration of a range of unit doses of cocaine within a single experimental session. […] During rapid assessment studies, food-maintained behavior was disrupted in two monkeys and unaffected in the remaining two monkeys, resulting in a >50% decrease in averaged response rates prior to or following sessions of cocaine self-administration.
Subjects. Five male rhesus monkeys (Macaca mulatta), 89B013, 96D155, 97D105, RQ22 15, and 93N082, were trained to respond for the delivery of 1-g banana pellets under a program of gradually increasing values of a fixed-ratio (FR) schedule until performance was maintained under the terminal FR 30 response schedule. Then, a double-lumen intravenous catheter was surgically implanted under aseptic-conditions in each monkey. Subsequently, monkeys were trained to respond for cocaine (see below). All monkeys were maintained under identical housing conditions as specified under contract DA-7-8073. Individual monkeys had visual, auditory, and olfactory contact with other monkeys, and several types of enrichment devices were provided in the home chamber.
Apparatus. All experimental equipment was identical to that used in our previously described drug self-administration studies. Briefly, each monkey was housed individually in a well-ventilated stainless steel chamber (64×64×79 cm). The home cages of all monkeys were modified to include an operant panel (28×28 cm) mounted on the front wall and fitted with response keys that could be trans-illuminated by red or green stimulus lights (LEDs). The operant panel also supported an externally-mounted pellet dispenser (Gerbrands, Model G5210) that delivered 1 gm fruit-flavored food pellets (P. J. Noyes Co., Lancaster, N.H.) to a food receptacle mounted on the cage beneath the operant response panel. Two syringe pumps (Model B5P-IE, Braintree Scientific, Braintree, Mass.; or Model 980210, Harvard Apparatus, South Natick, Mass.) were mounted above each cage for delivery of saline or drug solutions through the double-lumen intravenous catheters. Operation of the operant panels and data collection were accomplished with an LBM-compatible computer supplied by Med Associates, Inc., and located in an adjacent room. The experimental control hardware was supplied by Med Associates, Inc., and was controlled by customized-software written in MedState Notation.
Test sessions. A diagram of the Rapid Assessment Procedure is shown in the drawing. Test sessions occurred twice daily beginning at 11 a.m. and 3 p.m. […]

Setting [1] is: 32 mg/kg i.m. pretreatment, averaged for the group.
Setting [2] is: 32 mg/kg i.m., monkeys 96D155, 93N082 and 97D105.

`NC(=O)OC[C@H](N)Cc1ccccc1` [test compound, O-carbamoyl-(D)-phenylalaminol]: the “Displacement of the descending portion of the cocaine dose-effect curve” value (32 mg/kg i.m.) is “leftward and upward displacement”. Besides, under setting [1], the “Effect on responding during availability of saline or low unit doses of i.v. cocaine (0.001-0.01 mg/kg)” value is “either increased or did not change response rates; also recorded: increased responding” and the “Effect on self-administration of higher unit doses of i.v. cocaine (0.032-0.32 mg/kg)” value is given as “decreased cocaine self-administration behavior”. Further, the “Decrease in food-maintained responding (averaged response rates), Food 1 and Food 2” value (32 mg/kg i.m., averaged for the group, rapid assessment) is listed as greater than 50%. Where the note is “32 mg/kg i.m., monkey RQ2215”, the “Decrease in food-maintained responding, Food 1” value is reported as 40%; the “Responding during availability of saline or unit doses of i.v. cocaine 0.001-0.032 mg/kg/injection” value is listed as “inconsistently increased”; the “Responding during availability of unit doses of 0.1 and 0.32 mg/kg cocaine” value was “unchanged”. The “Food-maintained responding, Food 1” value (32 mg/kg i.m., monkeys 93N082 and 97D105) is given as “nearly eliminated”. Also, under setting [2], the “Effect on i.v. self-administration during availability of higher unit doses of cocaine” value is “reduced i.v. self-administration behavior”; the “Effect on responding during availability of saline or low unit doses of cocaine (0.001-0.01 mg/kg)” value is listed as “increased responding”; the “Food-maintained responding, Food 2” value was “nearly eliminated”.
